# Reference: patent US20230067811A1, “MODULATING LYMPHATIC VESSELS IN NEUROLOGICAL DISEASE” (University of Virginia Patent Foundation, priority 2020, published 2023)
# Tested on: microglia
# Assay: Single-cell RNA-seq of brain cortical myeloid cells after meningeal lymphatic ablation
# Type: in vivo, mouse
# Conditions: 5×FAD mice, Vis. versus Vis./photo. groups
# Experimental: Transcriptome of sorted live CD45^+Ly6G^negCD11b^+ cells pooled from 3 mice per group was analyzed by single-cell RNA-seq (scRNA-seq).
# J Neurosci 28, 14156-14164, (2008)). Thus, it was hypothesized that altered microglial function in mice with impaired meningeal lymphatics was contributing to decreased clearance of Aβ by anti-Abeta antibody. Single-cell RNA-seq was performed on live myeloid CD45^+Ly6G^negCD11b^+ cells sorted from the brain cortices of 5×FAD mice with intact or ablated meningeal lymphatics (FIG. 13A). After in-silico removal of undesired cell contaminants, shared nearest neighbor clustering and t-distributed stochastic neighbor embedding, four clusters of microglia were identified (FIG. 13B). […] Cell 169, 1276-1290 e1217, (2017); Krasemann, S. et al. The TREM2-APOE Pathway Drives the Transcriptional Phenotype of Dysfunctional Microglia in Neurodegenerative Diseases. Immunity 47, 566-581 e569, (2017)). Concomitantly, it was observed that there was a significant increase in cortical CD45^high cells (recruited leukocytes and/or activated microglia, FIGS. 13M-13Q) and in the levels of […] (encoded by the H2-D1 gene) in both CD45^intCD11b^+ (microglia) and CD45high CD11b^neg (recruited lymphoid cells) cells in mice with meningeal lymphatic dysfunction (FIGS. 13R-13U). […]
substance,measurement,value
verteporfin [Visudyne],frequency of microglia (% of total cells) from each cluster,similar
